Measurements taken from the supplement of paper PMC10307832.

Columns and labels:
Test in all cases: relative viability (nuclei count vs DMSO), 5 days (fraction); higher = more cells survive
QS11 + Trametinib = compound: C1CC2=C(C1)C=C(C=C2)OC3=NC(=C4C(=N3)N(C=N4)CC5=CC=C(C=C5)C6=CC=CC=C6)N[C@@H](CC7=CC=CC=C7)CO [QS11] + CC(=O)Nc1cccc(-n2c(=O)n(C3CC3)c(=O)c3c(Nc4ccc(I)cc4F)n(C)c(=O)c(C)c32)c1 [Trametinib] (partner 0.02 µM)
Outline: (§1)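 Relative viability equals treated-well nuclei counts divided by vehicle-well nuclei counts. Counts came from 4× images of lung cancer cell lines grown in 1536-well plates for 5 days after pin-tool dosing on the day after seeding. Dosing used one drug alone or a fixed anchor-drug dose plus five library-drug doses (not always all listed) in √10 steps, and values are medians of duplicate plates.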

QS11 + Crizotinib = compound: C1CC2=C(C1)C=C(C=C2)OC3=NC(=C4C(=N3)N(C=N4)CC5=CC=C(C=C5)C6=CC=CC=C6)N[C@@H](CC7=CC=CC=C7)CO [QS11] + C[C@@H](Oc1cc(-c2cnn(C3CCNCC3)c2)cnc1N)c1c(Cl)ccc(F)c1Cl [Crizotinib] (partner 1 µM)
Outline: as §1

AZ628 + Pictilisib = compound: CC1=C(C=C(C=C1)NC(=O)C2=CC(=CC=C2)C(C)(C)C#N)NC3=CC4=C(C=C3)N=CN(C4=O)C [AZ628] + CS(=O)(=O)N1CCN(Cc2cc3nc(-c4cccc5[nH]ncc45)nc(N4CCOCC4)c3s2)CC1 [Pictilisib] (partner 1 µM)
Outline: as §1

AZ628 + Olaparib = compound: CC1=C(C=C(C=C1)NC(=O)C2=CC(=CC=C2)C(C)(C)C#N)NC3=CC4=C(C=C3)N=CN(C4=O)C [AZ628] + O=C(c1cc(Cc2n[nH]c(=O)c3ccccc23)ccc1F)N1CCN(C(=O)C2CC2)CC1 [Olaparib] (partner 8 µM)
Outline: as §1

Cell Line | relative viability (QS11 + Trametinib; first compound 0.08 µM) | relative viability (QS11 + Trametinib; first compound 0.253 µM) | relative viability (QS11 + Trametinib; first compound 0.8 µM) | relative viability (QS11 + Trametinib; first compound 2.53 µM) | relative viability (QS11 + Trametinib; first compound 8 µM) | relative viability (QS11 + Crizotinib; first compound 0.08 µM) | relative viability (QS11 + Crizotinib; first compound 0.253 µM) | relative viability (QS11 + Crizotinib; first compound 0.8 µM) | relative viability (QS11 + Crizotinib; first compound 2.53 µM) | relative viability (QS11 + Crizotinib; first compound 8 µM) | relative viability (AZ628 + Pictilisib; first compound 0.08 µM) | relative viability (AZ628 + Pictilisib; first compound 0.253 µM) | relative viability (AZ628 + Pictilisib; first compound 0.8 µM) | relative viability (AZ628 + Pictilisib; first compound 2.53 µM) | relative viability (AZ628 + Pictilisib; first compound 8 µM) | relative viability (AZ628 + Olaparib; first compound 0.08 µM) | relative viability (AZ628 + Olaparib; first compound 0.253 µM) | relative viability (AZ628 + Olaparib; first compound 0.8 µM) | relative viability (AZ628 + Olaparib; first compound 2.53 µM) | relative viability (AZ628 + Olaparib; first compound 8 µM)
NCI-H23 | 0.359 | 0.385 | 0.283 | 0.297 | 0.318 | 0.473 | 0.462 | 0.473 | 0.385 | 0.44 | 0.407 | 0.319 | 0.261 | 0.312 | 0.246 | 0.316 | 0.312 | 0.331 | 0.227 | 0.216
NCI-H1755 | 0.747 | 0.755 | 0.54 | 0.681 | 0.618 | 0.889 | 0.826 | 0.509 | 0.677 | 0.691 | 0.378 | 0.346 | 0.29 | 0.275 | 0.203 | 0.917 | 0.869 | 0.86 | 0.832 | 0.845
NCI-H650 | 0.825 | 0.934 | 1.06 | 0.959 | 0.983 | 0.722 | 0.726 | 0.753 | 0.55 | 0.607 | 1.07 | 1 | 1.06 | 1.12 | 0.732 | 0.43 | 0.462 | 0.482 | 0.512 | 0.627
NCI-H1437 | 0.551 | 0.561 | 0.474 | 0.477 | 0.499 | 0.99 | 1.04 | 0.862 | 0.747 | 0.744 | 0.505 | 0.476 | 0.526 | 0.532 | 0.483 | 0.584 | 0.605 | 0.767 | 0.597 | 0.54
NCI-H460 | 0.13 | 0.158 | 0.131 | 0.0849 | 0.0752 | 1.17 | 0.868 | 0.684 | 0.31 | 0.177 | 0.323 | 0.25 | 0.254 | 0.269 | 0.127 | 0.543 | 0.397 | 0.342 | 0.414 | 0.371
HARA | 0.652 | – | 0.562 | 0.48 | 0.634 | 1.11 | 1.1 | – | 1.1 | 1.04 | 0.331 | 0.379 | 0.283 | 0.337 | 0.287 | 0.762 | 0.764 | 0.869 | 0.84 | 0.51
NCI-H2085 | 0.512 | 0.483 | 0.43 | 0.513 | 0.508 | 0.907 | 0.95 | 0.84 | 0.776 | 0.802 | 0.506 | 0.413 | 0.408 | 0.386 | 0.378 | 0.805 | 0.756 | 0.895 | 0.865 | 0.703
RERF-LC-KJ | 0.825 | 0.902 | 0.843 | 0.865 | 0.76 | 0.467 | 0.906 | 0.847 | 0.769 | 0.759 | 0.573 | 0.633 | 0.612 | 0.513 | 0.487 | 0.807 | 0.925 | 1.01 | 1.01 | 0.865
HCC-78 | 0.771 | 0.765 | 0.643 | 0.883 | 0.781 | 0.326 | 0.342 | 0.289 | 0.325 | 0.331 | 0.373 | 0.21 | 0.211 | 0.228 | 0.231 | 0.94 | 0.808 | 0.807 | 0.786 | 0.903
NCI-H2087 | 0.243 | 0.219 | 0.211 | 0.22 | 0.205 | 0.849 | 0.794 | 0.65 | 0.652 | 0.573 | 0.617 | 0.35 | 0.325 | 0.341 | 0.291 | 0.446 | 0.491 | 0.383 | 0.537 | 0.181
SK-LU-1 | 0.443 | 0.508 | 0.441 | 0.522 | 0.55 | 1.1 | 0.822 | 0.63 | 0.544 | 0.785 | 0.429 | 0.375 | 0.534 | 0.467 | 0.373 | 0.376 | 0.37 | 0.44 | 0.379 | 0.315
EMC-BAC-2 | 0.814 | 0.954 | 0.573 | 0.885 | 0.804 | 0.892 | 0.75 | 0.529 | 0.741 | 0.541 | 0.511 | 0.476 | 0.455 | 0.459 | 0.466 | 0.566 | 0.581 | 0.612 | 0.558 | 0.746
A-427 | 0.778 | 0.78 | – | 0.805 | 0.767 | 0.779 | 0.885 | – | 0.829 | 0.821 | 0.43 | 0.364 | 0.333 | 0.177 | 0.132 | 0.85 | 0.73 | 0.773 | 0.691 | 0.541
NCI-H727 | 0.416 | 0.404 | 0.38 | 0.406 | 0.396 | 0.813 | 0.958 | 0.857 | 0.729 | 0.631 | 0.314 | 0.199 | 0.184 | 0.281 | 0.28 | 0.603 | – | – | 0.506 | 0.333
NCI-H2170 | 0.93 | 0.962 | 0.728 | 1.01 | 1.04 | 1.32 | 1.1 | 1.02 | 1.12 | 1.51 | 0.386 | 0.305 | 0.354 | 0.337 | 0.275 | 0.56 | 0.598 | 0.607 | 0.638 | 0.551
COR-L23 | 0.577 | 0.605 | 0.585 | 0.551 | 0.598 | 0.672 | 0.642 | 0.481 | 0.447 | 0.481 | 0.767 | 0.73 | 0.651 | 0.653 | 0.346 | 0.459 | 0.365 | 0.444 | 0.448 | 0.317
